According to patent US12458605B2, “Lipid nanoparticle” (National University Corporation Hokkaido University, priority 2020, dated 2025):

Key:
spleen = test: In vivo Fluc activity of FlucmRNA-loaded LNP by in vivo imaging, spleen; conditions: Balb/c mice, 6 hours; for Fluc activity in the spleen, compared with CL15F6: 0.1 mg mRNA/kg, versus LNP comprising CL15F6 (Table 7); for Fluc Activity in spleen: FlucmRNA-loaded LNP i.v. 0.1 mg mRNA/kg
Summary of the method: (§1)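 Read-out is average radiance (p/s/cm2/sr, about 560 nm) from whole-animal imaging of liver and spleen 6 h post-dose, after tail-vein luciferin at 1.5 mg/mouse. Dosing was intravenous, 0.1 mg mRNA/kg, in 7-week-old female Balb/c mice.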

F7 = test: In vivo F7 knockdown, plasma F7 enzyme activity (BIOPHEN FVII), Balb/c mice; conditions: for knockdown activity, compared with MC3: F7siRNA-loaded LNP, versus LNP comprising MC3; for F7 enzyme activity (Ratio using MC3 as 1): i.v. 0.025 mg siRNA/kg, plasma at 24 hours, relative plasma F7 activity of MC3 LNP as 1
Summary of the method: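 Plasma factor VII activity was read 24 h after a single intravenous 0.025 mg siRNA/kg dose of siRNA-loaded lipid nanoparticles in 5-week-old female Balb/c mice. Activity is relative to untreated animals (100%) and normalised to the MC3 nanoparticle benchmark (=1).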

[1] = siRNA/mRNA encapsulation rate by Ribogreen reagent (section IV); assay type: physicochemical; conditions: for % siRNA encapsulation: F7siRNA-loaded LNP, 50:10:38.5:1.5, N/P ratio 6; for % mRNA encapsulation: FlucmRNA-loaded LNP, 50:10:38.5:1.5
Summary of the method: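 Encapsulation % was calculated as (total − surface nucleic acid)/total × 100, with both values measured by RiboGreen fluorescence at 485/528 nm. Total RNA was read on LNPs lysed with 1% Triton X-100 at 1.2 μg/mL, and surface RNA on intact LNPs at 8 μg/mL in TE buffer. Concentrations came from a 0-2.5 μg/mL Triton-containing calibration curve.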

[2] = Average particle size (ζ-Average) and PDI by dynamic light scattering (Zetasizer Nano ZSP); assay type: physicochemical
Summary of the method: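 Dynamic light scattering of the particles in PBS(−) gave both the polydispersity index and the ζ-Average mean size.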

liver = test: In vivo Fluc activity of FlucmRNA-loaded LNP by in vivo imaging, liver; conditions: Balb/c mice, 6 hours; for Fluc activity in the liver, compared with CL15F6: 0.1 mg mRNA/kg, versus LNP comprising CL15F6 (Table 7); for Fluc Activity in liver: FlucmRNA-loaded LNP i.v. 0.1 mg mRNA/kg
Summary of the method: as §1

[3] = Storage stability of FlucmRNA-loaded LNP at −80, 5, 25 and 40° C.; assay type: physicochemical; conditions: for period for which quality remained good, −80° C.: maximum storage period 1 week; for period for which quality remained good, 5° C. / period for which quality remained good, 25° C. / period for which quality remained good, 40° C. (weeks): maximum storage period 5 weeks
Summary of the method: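 Reported period is how long all three criteria hold: encapsulation rate at 80% or more, PDI of 0.2 or less, and mean particle size within +/−20 nm of day-of-preparation value. Particle size, PDI and nucleic acid encapsulation were tracked over time at storage temperatures of −80, 5, 25 and 40° C.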

[4] = F7siRNA-loaded LNP, 50:10:38.5:1.5, N/P ratio 6
[5] = FlucmRNA-loaded LNP, 50:10:38.5:1.5
[6] = FlucmRNA-loaded LNP, lipid:DSPC:cholesterol:DMG-PEG2K 50:10:38.5:1.5

| Compound | Fluc activity in the spleen, compared with CL15F6 (spleen) | Fluc Activity in spleen (spleen) | knockdown activity, compared with MC3 (F7) | F7 enzyme activity (Ratio using MC3 as 1) (F7) | % siRNA encapsulation [1] [%] | % mRNA encapsulation [1] [%] | PDI [2, 4] | ζ-Average (nm) [2, 4] [nm] | PDI [2, 5] | ζ-Average (nm) [2, 6] [nm] | Fluc activity in the liver, compared with CL15F6 (liver) | Fluc Activity in liver (liver) | period for which quality remained good, −80° C. [3] [week] | period for which quality remained good, 5° C. [3] [weeks] | period for which quality remained good, 25° C. [3] [weeks] | period for which quality remained good, 40° C. (weeks) [3] [weeks] |
| --- | --- | --- | --- | --- | --- | --- | --- | --- | --- | --- | --- | --- | --- | --- | --- | --- |
| CCCCCCCCC(CCCCCCCC)C(=O)OCCCCCCC(O)(CCCCCCOC(=O)C(CCCCCCCC)CCCCCCCC)CCCCOC(=O)C1CCN(C)CC1 [CL15F 10-8] | higher Fluc activity | 8.42E+06 Avg Radiance [p/s/cm2/sr] | higher knockdown activity | 0.52 | 100.6 | 99.78 | 0.041 | 99.44 | 0.026 | 99.84 | higher Fluc activity | 1.35E+07 Avg Radiance [p/s/cm2/sr] | 1 | 5 | 5 | 5 |
| CCCCCCCCCC(CCCCC)C(=O)OCCCCCCC(O)(CCCCCCOC(=O)C(CCCCC)CCCCCCCCC)CCCCOC(=O)C1CCN(C)CC1 (centres unmarked) [CL15F 11-5] |  | 5.01E+06 Avg Radiance [p/s/cm2/sr] | higher knockdown activity | 0.78 | 100.3 | 99.8 | 0.017 | 109.6 | 0.010 | 108.90 | higher Fluc activity | 9.38E+06 Avg Radiance [p/s/cm2/sr] | 1 | 5 | 5 | 5 |
| CCCCCCCCCC(CCCCCC)C(=O)OCCCCCCC(O)(CCCCCCOC(=O)C(CCCCCC)CCCCCCCCC)CCCCOC(=O)C1CCN(C)CC1 (centres unmarked) [CL15F 11-6] | higher Fluc activity | 8.19E+06 Avg Radiance [p/s/cm2/sr] | higher knockdown activity | 0.81 | 100.3 | 99.75 | 0.025 | 101.2 | 0.007 | 106.50 | higher Fluc activity | 9.09E+06 Avg Radiance [p/s/cm2/sr] | 1 | 5 | 5 | 5 |
| CCCCCCCCCC(CCCCCCC)C(=O)OCCCCCCC(O)(CCCCCCOC(=O)C(CCCCCCC)CCCCCCCCC)CCCCOC(=O)C1CCN(C)CC1 (centres unmarked) [CL15F 11-7] | higher Fluc activity | 7.13E+06 Avg Radiance [p/s/cm2/sr] | higher knockdown activity | 0.85 | 100.6 | 99.86 | 0.049 | 102.5 | 0.002 | 102.50 | higher Fluc activity | 1.10E+07 Avg Radiance [p/s/cm2/sr] | 1 | 5 | 5 | 5 |
| CCCCCCCCCC(CCCCCCCCC)C(=O)OCCCCCCC(O)(CCCCCCOC(=O)C(CCCCCCCCC)CCCCCCCCC)CCCCOC(=O)C1CCN(C)CC1 [CL15F 11-9] | higher Fluc activity | 7.55E+06 Avg Radiance [p/s/cm2/sr] | higher knockdown activity | 0.50 | 101.1 | 99.78 | 0.029 | 104.9 | 0.023 | 99.31 | higher Fluc activity | 3.66E+07 Avg Radiance [p/s/cm2/sr] | 1 | 5 | 5 | 5 |
| CCCCCCCCCCC(CCCC)C(=O)OCCCCCCC(O)(CCCCCCOC(=O)C(CCCC)CCCCCCCCCC)CCCCOC(=O)C1CCN(C)CC1 (centres unmarked) [CL15F 12-4] |  | 5.10E+06 Avg Radiance [p/s/cm2/sr] | higher knockdown activity | 0.81 | 100.2 | 99.7 | 0.065 | 113.2 | 0.009 | 116.60 |  | 2.87E+06 Avg Radiance [p/s/cm2/sr] | 1 | 5 | 5 | 5 |
| CCCCCCCCCCC(CCCCCCCCCC)C(=O)OCCCCCCC(O)(CCCCCCOC(=O)C(CCCCCCCCCC)CCCCCCCCCC)CCCCOC(=O)C1CCN(C)CC1 [CL15F 12-10] |  | 5.58E+06 Avg Radiance [p/s/cm2/sr] | higher knockdown activity | 0.51 | 100.5 | 99.78 | 0.014 | 100.2 | 0.030 | 97.59 | higher Fluc activity | 4.33E+07 Avg Radiance [p/s/cm2/sr] | 1 | 5 | 5 | 5 |
| CCCCCCCCCCCC(CCC)C(=O)OCCCCCCC(O)(CCCCCCOC(=O)C(CCC)CCCCCCCCCCC)CCCCOC(=O)C1CCN(C)CC1 (centres unmarked) [CL15F 13-3] | higher Fluc activity | 6.11E+06 Avg Radiance [p/s/cm2/sr] |  | 1.11 | 100.3 | 98.62 | 0.081 | 126.0 | 0.048 | 142.90 |  | 3.51E+06 Avg Radiance [p/s/cm2/sr] | 0 | 5 | 5 | 5 |
